Biological target: T1, recombinant human FAK1 (Homo sapiens, UniProt Q05397)
T1 construct: fused on or other part: N-terminal 6xHis tag
Assay: FAK1 HTRF assay
Assay type: biochemical
Procedure: Active FAK1 was prepared for use in the Homogeneous Time-Resolved Fluorescence (HTRF) assay. Briefly, N-terminal 6 His tagged recombinant human FAK1, from residue 692-end (GenBank accession no. L13616) was expressed by Bacculovirus in sf9 cells. […] A 1.6 mg/mL (45 μM) stock was used in the HTRF assay at a final concentration of 10 nM.
Gastrin precursor (tyr87) biotinylated peptide which contains the residues surrounding tyrosine 87 (EEAY*GWM) of gastrin precursor was obtained (Cell Signaling Tech, Item no. 1310, Lot 7). The peptide was provided at a stock concentration of 6 μM, and used a final concentration of 0.5 μM in the HTRF assay.
10 mM stock in 100 μL Enzyme assay buffer pH7.4 was prepared freshly and used at a final concentration of 10 μM in the assay.
Powders were dissolved in 100% DMSO to a final stock concentration of 10 mM. The volume needed (in μL) to add for 10 mM=mg powder is 10^5/MW of compound. The final compound concentration in the assay plate started at 10 μM.
Pfizer FAK inhibitor PF-562271 (N-methyl-N-(3-(((2-((2-oxoindolin-5-yl)amino)-5-(trifluoromethyl)pyrimidin-4-yl)amino)methyl)pyridin-2-yl)methanesulfonamide) was prepared as per the reported procedure from US Patent Publication No. 2005/256145A1.
Streptavidin-Allophycocyanin was obtained (Prozyme, Cat. No. PJ25S. SA-APC was provided at a stock concentration of 2.06 mg/mL, where APC concentration was 11.6 μM and the streptavidin concentration was 15.5 μM. SA-APC was used at a final concentration of 12 nM in the assay (based on streptavidin concentration).
This reagent was obtained from Perkin ElmerAD0068. Europium-W1024-PT-66 Anti Phospho Tyrosine Ab is a monoclonal IgG1 that recognizes phospho tyrosine peptide. 100 μg/mL stock was used at a final concentration of 0.1 nM in the assay.
• 1. The compound dilutions were made by TECAN liquid handler as per the scheme in FIG. 1. • 2. 16 μL of diluted compound was added to each well of the assay plate using TECAN liquid handler. • 3. 20 μL of substrate mix (biotinylated gastrin precursor) was added into each well of the assay plate manually. • 4. 10 μL of enzyme mix (FAK1) was added to each well except mins. • 5. The plate was incubated at rt for 45 min with shaking. • 6. The HTRF mix was prepared and 75 μL was added to the HTRF plate. • 7. After the incubation was over, 10 μL of the mixture was transferred to the HTRF assay plate and incubated for 45 min at rt with shaking. • 8. The readings were taken in Pherastar in HTRF mode (ext 337 nm, em 665 & 620 nm) • 9. The results were analyzed using Graphpad Prism® software after calculation the z factor signal window and % inhibition. • 10. The IC50 was calculated.

T1 sequence (Q05397 422-680 limits assumed): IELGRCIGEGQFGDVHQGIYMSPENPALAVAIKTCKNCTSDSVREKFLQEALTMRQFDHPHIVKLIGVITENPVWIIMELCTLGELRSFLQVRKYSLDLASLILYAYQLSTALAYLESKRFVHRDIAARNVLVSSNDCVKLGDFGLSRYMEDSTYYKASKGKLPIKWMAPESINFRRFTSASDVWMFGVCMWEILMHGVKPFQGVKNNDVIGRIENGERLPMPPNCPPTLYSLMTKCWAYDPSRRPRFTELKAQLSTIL

IC50 [nM]	Structure (SMILES)
> 1000	COc1cc(Nc2cc3c(ccn3Cc3cccnc3)cn2)cc(OC)c1OC [Example 6]
> 1000	O=S(=O)(c1ccc(Nc2cc3c(ccn3Cc3cccnc3)cn2)cc1)C(F)F [Example 8]
> 1000	O=S(=O)(c1ccc(Nc2ncc3ccn(Cc4ccccc4OC(F)F)c3n2)cc1)C(F)F [Example 9]
> 1000	CSc1cccc(Nc2ncc3cnn(Cc4cccnc4)c3n2)c1 [Example 10]
> 1000	CSc1cccc(Nc2cc3c(ccn3Cc3cccnc3)cn2)c1 [Example 13]
> 1000	O=C1CCc2cc(Nc3ncc4cnn(Cc5cccnc5)c4n3)ccc2N1 [Example 14]
> 1000	c1cncc(Cn2ccc3cnc(Nc4ccc5ncsc5c4)cc32)c1 [Example 15]
> 1000	FC(F)(F)c1cccc(Nc2cc3c(ccn3Cc3cccnc3)cn2)c1 [Example 16]
> 1000	O=S(=O)(c1ccc(Nc2ncc3ccn(Cc4cccnc4)c3n2)cc1)C(F)F [Example 17]
> 1000	O=S(=O)(c1ccc(Nc2cc3c(ccn3Cc3ccccc3OC(F)F)cn2)cc1)C(F)F [Example 19]
> 1000	CN(c1ncccc1Cn1ccc2cnc(Nc3ccc(C#N)nc3)cc21)S(C)(=O)=O [Example 22]
> 1000	CN(c1ncccc1Cn1ccc2cnc(Nc3ccc(S(=O)(=O)C(F)F)cc3)cc21)S(C)(=O)=O [Example 25]
> 1000	CC(=O)Nc1cccc(Nc2cc3c(ccn3-c3ccccn3)cn2)c1 [Example 37]
> 1000	O=C1CCc2cc(Nc3ncc4ccn(S(=O)(=O)c5ccc(OC(F)(F)F)cc5)c4n3)ccc2N1 [Example 41]
> 1000	CC(=O)Nc1cccc(Nc2ncc3ccn(S(=O)(=O)c4ccc(OC(F)(F)F)cc4)c3n2)c1 [Example 44]
> 1000	CC(=O)Nc1cccc(Nc2cc3c(ccn3S(=O)(=O)c3ccc(OC(F)(F)F)cc3)cn2)c1 [Example 46]
> 1000	CC(=O)Nc1ccc(Nc2cc3c(ccn3S(=O)(=O)c3ccc(OC(F)(F)F)cc3)cn2)cc1 [Example 47]
> 1000	O=C1CCc2cc(Nc3cc4c(ccn4S(=O)(=O)c4ccc(OC(F)(F)F)cc4)cn3)ccc2N1 [Example 48]
> 1000	O=S(=O)(c1ccc(OC(F)(F)F)cc1)n1ccc2cnc(Nc3ccc4ncsc4c3)cc21 [Example 49]
> 1000	CS(=O)(=O)c1ccc(Nc2cc3c(ccn3S(=O)(=O)c3cccc(OC(F)(F)F)c3)cn2)cc1 [Example 51]
> 1000	COc1ccc(Nc2cc3c(ccn3S(=O)(=O)c3cccc(OC(F)(F)F)c3)cn2)cc1 [Example 53]

IC50 [nM]	Structure (SMILES)
> 1000	CS(=O)(=O)c1ccc(Nc2cc3c(ccn3S(=O)(=O)c3ccccc3OC(F)(F)F)cn2)cc1 [Example 57]
> 1000	CC(=O)Nc1cccc(Nc2cc3nn(Cc4ccccc4OC(F)F)cc3cn2)c1 [Example 63]
> 1000	O=C1CCc2cc(Nc3cc4nn(Cc5ccccc5OC(F)F)cc4cn3)ccc2N1 [Example 67]
> 1000	CC(=O)Nc1cccc(Nc2cc3c(cn2)c(C)nn3Cc2cccnc2N(C)S(C)(=O)=O)c1 [Example 68]
> 1000	CC(=O)Nc1ccc(Nc2cc3c(cn2)c(C)nn3Cc2cccnc2N(C)S(C)(=O)=O)nc1 [Example 70]
> 1000	CC(=O)Nc1ccccc1Nc1ncc2ccn(Cc3cccnc3N(C)S(C)(=O)=O)c2n1 [Example 71]
> 1000	CC(=O)Nc1ccc(Nc2cc3c(cn2)c(C)nn3Cc2cccnc2N(C)S(C)(=O)=O)cc1 [Example 72]
> 1000	CN(c1ncccc1Cn1ccc2cnc(Nc3ccc4c(c3)C(=O)NC4=O)nc21)S(C)(=O)=O [Example 74]
< 20	O=C1CCc2cc(Nc3ncc4ccn(Cc5ccccc5OC(F)(F)F)c4n3)ccc2N1 [Example 83]
> 1000	CC(=O)Nc1cccc(Nc2cc3c(cn2)c(C)nn3S(=O)(=O)c2ccccc2OC(F)(F)F)c1 [Example 88]
> 1000	O=S(=O)(c1ccccc1OC(F)(F)F)n1ncc2cnc(Nc3ccc4ncsc4c3)cc21 [Example 89]
> 1000	CC(=O)Nc1cccc(Oc2ncc3ccn(Cc4cccnc4N(C)S(C)(=O)=O)c3n2)c1 [Example 124]
< 20	CNc1ccc(Nc2ncc3ccn(Cc4cccnc4N(C)S(C)(=O)=O)c3n2)cc1 [Example 156]
< 20	O=C1CCc2cc(Nc3cc4c(cn3)cnn4S(=O)(=O)c3cccc4cccnc34)ccc2N1 [Example 187]
< 20	CN(c1ccccc1Cn1ncc2cnc(Nc3ccc(N4CCNCC4)cc3)cc21)S(C)(=O)=O [Example 222]
> 1000	Cn1cnc(S(=O)(=O)n2ccc3cnc(Nc4ccc(N5CCNCC5)cc4)nc32)c1 [Example 236]
> 1000	O=S(=O)(C1CCCC1)n1ccc2cnc(Nc3ccc(N4CCNCC4)cc3)nc21 [Example 238]
< 20	CN(c1ccccc1Cn1ccc2cnc(Nc3ccc(N4CCNCC4)c(F)c3)cc21)S(C)(=O)=O [Example 322]
< 20	CC(C)C(=O)Nc1ccc(Nc2ncc3ccn(S(=O)(=O)c4cccc5cccnc45)c3n2)cc1 [Example 324]
< 20	CN(c1ccccc1Cn1ccc2cnc(Nc3ccc(N4CCNCC4)cc3)cc21)S(C)(=O)=O [Example 325]
< 20	O=S(=O)(c1cccc2cccnc12)n1ncc2cnc(Nc3ccc(N4CCN(CCO)CC4)cc3)cc21 [Example 351]

IC50 [nM]	Structure (SMILES)
< 20	O=C(C1CC1)N1CCN(c2ccc(Nc3cc4c(cn3)cnn4S(=O)(=O)c3cccc4cccnc34)cc2)CC1 [Example 352]
< 20	COc1cc(Nc2ncc3ccn(S(=O)(=O)c4cccc5cccnc45)c3n2)ccc1NC(=O)C1CCC1 [Example 373]
< 20	COc1cc(Nc2ncc3ccn(S(=O)(=O)c4cccc5cccnc45)c3n2)ccc1NC(=O)C1CC1 [Example 376]
> 1000	CN(c1ncccc1CN1C(=O)C(C)(C)c2cnc(Nc3ccc(N4CCNCC4)cc3)nc21)S(C)(=O)=O [Example 380]
< 20	CC1(C)CN(S(=O)(=O)c2cccc3cccnc23)c2nc(Nc3ccc(N4CCNCC4)cc3)ncc21 [Example 403]
< 20	O=S(=O)(c1cccc2cccnc12)n1ncc2cnc(Nc3ccc(N4CCOCC4)cc3)nc21 [Example 409]
< 20	O=S(=O)(c1cccc2cccnc12)n1ccc2cnc(Nc3ccc(N4CCCC(CO)C4)cc3)nc21 (centres unmarked) [Example 425]
< 20	CN(c1ccccc1Cn1ccc2cnc(Nc3ccc(N4CCN5C(=O)CCC5C4)cc3)nc21)S(C)(=O)=O (centres unmarked) [Example 436]
< 20	CN(c1ccccc1Cn1ccc2cnc(Nc3ccc(N4CCNCC4)c(F)c3)nc21)S(C)(=O)=O [Example 438]
< 20	COc1cc(Nc2ncc3ccn(S(=O)(=O)c4cccc5cccnc45)c3n2)ccc1N1CC2CC1CN2C (centres unmarked) [Example 439]
< 20	CN(c1ccccc1Cn1ccc2cnc(Nc3ccc(NC(=O)C4CC4)cc3)nc21)S(C)(=O)=O [Example 450]
< 20	C[C@@H]1CN(c2ccc(Nc3ncc4c(n3)N(S(=O)(=O)c3cccc5cccnc35)CC4(C)C)cc2)CCN1 [Example 470, (R)-5,5-dimethyl-N-(4-(3-methylpiperazin-1-yl)phenyl)-7-(quinolin-8-ylsulfonyl)-6,7-dihydro-5H-pyrrolo[2,3-d]pyrimidin-2-amine]
> 1000	CNC(=O)Cc1ccccc1Cn1ccc2cnc(Nc3ccc(N4CCN(C)CC4)cc3)nc21 [Example 474]
< 20	CC(C)N1CCN(c2ccc(Nc3ncc4ccn(Cc5ccccc5N(C)S(C)(=O)=O)c4n3)cc2)CC1 [Example 484]
< 20	COc1cc(Nc2cc3c(ccn3S(=O)(=O)c3ccccc3C#N)cn2)ccc1N1CCN(C)CC1 [Example 492]
< 20	C[C@H]1CN(C)CCN1c1ccc(Nc2ncc3ccn(Cc4ccccc4N(C)S(C)(=O)=O)c3n2)cc1 [Example 495]
< 20	CN1CCN(c2ccc(Nc3ncc4c(n3)N(S(=O)(=O)c3cccc5cccnc35)CC43CC3)cc2)CC1 [Example 499]
< 20	CN1CCCN(c2ccc(Nc3cc4c(ccn4S(=O)(=O)c4ccccc4C#N)cn3)cc2)CC1 [Example 505]
< 20	CC1CN(c2ccc(Nc3ncc4ccn(Cc5ccccc5N(C)S(C)(=O)=O)c4n3)cc2)CC(C)N1 (centres unmarked) [Example 523]
< 20	CC1CN(c2ccc(Nc3cc4c(ccn4S(=O)(=O)c4ccccc4C#N)cn3)cc2)CC(C)N1 (centres unmarked) [Example 529]
